The target in this assay is T1, CFTR (Homo sapiens, UniProt P13569, DEL508-508).
T1 construct: Primary CF airway epithelial cells were obtained from the UNC Cystic Fibrosis Tissue Procurement and Cell Culture Core; host or cells: primary CF airway epithelial cells
In words: Equivalent current assay in Primary CF airway epithelial cells (NAUC). Format: cell-based. The following applies: 24 h, normalized to VX809 (3 μM) positive control; for Nauc @ 3 μM: 3 μM test compound; for Nauc @ 10 μM: 10 μM test compound. In outline:
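NAUC is the area under the curve from forskolin (10 μM) plus VX770 (1 μM) addition to CFTR-172 (20 μM) block, after benzamil (5 μM). It is corrected for vehicle and scaled to 3 μM VX809 as 1.0 and DMSO as 0.0. Cells were exposed for 24 h to compounds with VX809; medians of ≥4 replicates were fitted sigmoidally.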

SMILES strings stand for the structures.

T1 sequence (P13569 with tags, fused parts or gaps DEL508-508): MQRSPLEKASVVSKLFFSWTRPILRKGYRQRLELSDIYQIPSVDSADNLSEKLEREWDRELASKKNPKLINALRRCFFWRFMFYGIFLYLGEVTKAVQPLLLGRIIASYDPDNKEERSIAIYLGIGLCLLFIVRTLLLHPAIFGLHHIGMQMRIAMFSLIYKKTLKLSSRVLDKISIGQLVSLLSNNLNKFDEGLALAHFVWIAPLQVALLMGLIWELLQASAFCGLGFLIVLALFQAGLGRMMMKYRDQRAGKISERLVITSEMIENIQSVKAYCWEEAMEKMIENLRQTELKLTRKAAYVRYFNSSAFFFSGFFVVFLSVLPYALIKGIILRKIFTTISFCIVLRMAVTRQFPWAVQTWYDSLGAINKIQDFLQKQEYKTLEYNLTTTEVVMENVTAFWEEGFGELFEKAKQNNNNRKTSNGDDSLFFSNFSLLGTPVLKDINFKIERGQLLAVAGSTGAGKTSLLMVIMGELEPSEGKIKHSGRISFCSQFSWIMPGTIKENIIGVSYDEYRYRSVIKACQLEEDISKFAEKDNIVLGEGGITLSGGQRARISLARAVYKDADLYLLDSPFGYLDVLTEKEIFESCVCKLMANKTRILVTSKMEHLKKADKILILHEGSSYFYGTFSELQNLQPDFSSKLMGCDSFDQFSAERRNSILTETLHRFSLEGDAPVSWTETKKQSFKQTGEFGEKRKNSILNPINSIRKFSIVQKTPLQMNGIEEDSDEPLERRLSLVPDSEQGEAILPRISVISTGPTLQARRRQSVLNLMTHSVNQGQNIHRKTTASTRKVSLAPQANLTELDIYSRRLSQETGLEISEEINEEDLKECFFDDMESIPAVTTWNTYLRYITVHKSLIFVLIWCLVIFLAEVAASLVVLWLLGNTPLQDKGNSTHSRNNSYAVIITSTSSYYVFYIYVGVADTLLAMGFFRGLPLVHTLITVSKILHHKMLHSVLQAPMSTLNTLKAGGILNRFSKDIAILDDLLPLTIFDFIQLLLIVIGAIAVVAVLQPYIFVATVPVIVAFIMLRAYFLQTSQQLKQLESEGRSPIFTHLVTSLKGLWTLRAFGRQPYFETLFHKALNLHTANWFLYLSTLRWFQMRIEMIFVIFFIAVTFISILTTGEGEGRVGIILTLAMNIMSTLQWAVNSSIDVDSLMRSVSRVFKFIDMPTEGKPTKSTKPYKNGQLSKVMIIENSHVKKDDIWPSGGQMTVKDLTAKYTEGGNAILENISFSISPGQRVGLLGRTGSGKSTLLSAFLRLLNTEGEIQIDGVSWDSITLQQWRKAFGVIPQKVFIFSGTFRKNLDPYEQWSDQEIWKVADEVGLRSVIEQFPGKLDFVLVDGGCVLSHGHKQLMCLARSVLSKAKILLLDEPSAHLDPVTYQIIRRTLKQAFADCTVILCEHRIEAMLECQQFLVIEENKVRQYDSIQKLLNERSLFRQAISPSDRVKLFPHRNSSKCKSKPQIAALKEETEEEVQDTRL

Consider `O=C1C2C(CO)NC3(C(=O)Nc4c(Cl)cc(Cl)cc43)C2C(=O)N1c1cc(Cl)cc(Cl)c1` (stereo not drawn) [Example 165], for which the “Nauc @ 3 μM” value is “++ (NAUC “++” refers to an observed NAUC 170-140% of positive control)” and the “Nauc @ 10 μM” value is listed as “++ (NAUC “++” refers to an observed NAUC 170-140% of positive control)”.
For the compound `O=C1C2C3C[C@H](O)CN3C3(C(=O)Nc4c(Cl)cc(Cl)cc43)C2C(=O)N1c1cc(C(F)(F)F)cc(C(F)(F)F)c1` (single isomer, unassigned) [Example 62], the “Nauc @ 3 μM” value was “++ (NAUC “++” refers to an observed NAUC 170-140% of positive control)” and the “Nauc @ 10 μM” value is given as “++ (NAUC “++” refers to an observed NAUC 170-140% of positive control)”.
For `O=C1C2C(Cc3ccccc3Cl)NC3(C(=O)Nc4c(Cl)cc(Cl)cc43)C2C(=O)N1c1cc(Cl)cc(Cl)c1` (stereo not drawn) [Example 190], the “Nauc @ 3 μM” value is “+++ (NAUC “+++” refers to an observed NAUC >170% of positive control)” and the “Nauc @ 10 μM” value is “+++ (NAUC “+++” refers to an observed NAUC >170% of positive control)”.
Consider `Cc1ccc(CC2NC3(C(=O)Nc4c(Cl)cc(Cl)cc43)C3C(=O)N(c4cc(Cl)cc(Cl)c4)C(=O)C23)cc1` (stereo not drawn) [Example 195], for which the “Nauc @ 3 μM” value was “+ (NAUC “+” refers to an observed NAUC <140% of positive control)” and the “Nauc @ 10 μM” value is reported as “++ (NAUC “++” refers to an observed NAUC 170-140% of positive control)”.
For `Cc1cnc(CC2NC3(C(=O)Nc4c(Cl)cc(Cl)cc43)C3C(=O)N(c4cc(Cl)cc(Cl)c4)C(=O)C23)cn1` (stereo not drawn) [Example 252], in that order: “++ (NAUC “++” refers to an observed NAUC 170-140% of positive control)” and “++ (NAUC “++” refers to an observed NAUC 170-140% of positive control)”.
Turning to `O=C1[C@H]2[C@@H](C(=O)N1c1cc(Cl)cc(Cl)c1)[C@]1(C(=O)Nc3c(Cl)cc(Cl)cc31)N1CCC[C@@H]21` (single isomer, unassigned) [Example 13], the “Nauc @ 3 μM” value was “+++ (NAUC “+++” refers to an observed NAUC >170% of positive control)” and the “Nauc @ 10 μM” value was “+++ (NAUC “+++” refers to an observed NAUC >170% of positive control)”.
On to `O=C1C2C3CC(C(F)(F)F)CN3C3(C(=O)Nc4c(Cl)cc(Cl)cc43)C2C(=O)N1c1cc(Cl)cc(Cl)c1` (stereo not drawn) [Example 215], for which the “Nauc @ 3 μM” value is reported as “+++ (NAUC “+++” refers to an observed NAUC >170% of positive control)” and the “Nauc @ 10 μM” value is listed as “++ (NAUC “++” refers to an observed NAUC 170-140% of positive control)”.
For the compound `CC(C)(C)NC(=O)N[C@H]1CC2C3C(=O)N(c4cc(Cl)cc(Cl)c4)C(=O)C3C3(C(=O)Nc4c(Cl)cc(Cl)cc43)N2C1` (stereo partly drawn) [Example 153], the “Nauc @ 3 μM” value is listed as “+ (NAUC “+” refers to an observed NAUC <140% of positive control)” and the “Nauc @ 10 μM” value is listed as “++ (NAUC “++” refers to an observed NAUC 170-140% of positive control)”.
Turning to `Cc1csc(N2C(=O)C3C4CCCN4C4(C(=O)Nc5c(Cl)cc(Cl)cc54)C3C2=O)n1` (stereo not drawn) [Example 101], the “Nauc @ 3 μM” value is on record as “+ (NAUC “+” refers to an observed NAUC <140% of positive control)” and the “Nauc @ 10 μM” value is “+++ (NAUC “+++” refers to an observed NAUC >170% of positive control)”.
Consider `[2H]C([2H])([2H])C1(C([2H])([2H])[2H])CC2C3C(=O)N(c4cc(Cl)cc(Cl)c4)C(=O)C3C3(C(=O)Nc4c(Cl)cc(Cl)cc43)N2C1` (stereo not drawn) [Example 185], for which the “Nauc @ 3 μM” value is listed as “+++ (NAUC “+++” refers to an observed NAUC >170% of positive control)” and the “Nauc @ 10 μM” value is given as “+++ (NAUC “+++” refers to an observed NAUC >170% of positive control)”.
As to `C[C@]1(O)CC2C3C(=O)N(c4cccc(C(F)(F)F)n4)C(=O)C3C3(C(=O)Nc4c(Cl)cc(Cl)cc43)N2C1` (stereo partly drawn) [Example 253], the “Nauc @ 3 μM” value is “+ (NAUC “+” refers to an observed NAUC <140% of positive control)” and the “Nauc @ 10 μM” value was “++ (NAUC “++” refers to an observed NAUC 170-140% of positive control)”.
For the compound `COc1cccc(CC2NC3(C(=O)Nc4c(Cl)cc(Cl)cc43)C3C(=O)N(c4cc(Cl)cc(Cl)c4)C(=O)C23)c1` (stereo not drawn) [Example 200], the “Nauc @ 3 μM” value is on record as “++ (NAUC “++” refers to an observed NAUC 170-140% of positive control)” and the “Nauc @ 10 μM” value was “+ (NAUC “+” refers to an observed NAUC <140% of positive control)”.
For `O=C1C2C3CCCN3C3(C(=O)Nc4c(Cl)cc(Cl)cc43)C2C(=O)N1c1cncc(Cl)c1` (stereo not drawn) [Example 20], in that order: “+ (NAUC “+” refers to an observed NAUC <140% of positive control)” and “++ (NAUC “++” refers to an observed NAUC 170-140% of positive control)”.
For `O=C1C2C3CCCN3C3(C(=O)Nc4c(Cl)cc(Cl)cc43)C2C(=O)N1c1cc(F)cc(F)c1` (stereo not drawn) [Example 21], in that order: “++ (NAUC “++” refers to an observed NAUC 170-140% of positive control)” and “++ (NAUC “++” refers to an observed NAUC 170-140% of positive control)”.
For `C[C@]1(F)CC2C3C(=O)N(c4cc(Cl)cc(Cl)n4)C(=O)C3C3(C(=O)Nc4c(Cl)cc(Cl)cc43)N2C1` (stereo partly drawn) [Example 231], in that order: “+ (NAUC “+” refers to an observed NAUC <140% of positive control)” and “+++ (NAUC “+++” refers to an observed NAUC >170% of positive control)”.
As for `CC1(C)CC2C3C(=O)N(c4cc(Cl)c(OC(F)F)c(Cl)c4)C(=O)C3C3(C(=O)Nc4c(Cl)cc(Cl)cc43)N2C1` (single isomer, unassigned) [Example 255], the “Nauc @ 3 μM” value is “+++ (NAUC “+++” refers to an observed NAUC >170% of positive control)” and the “Nauc @ 10 μM” value was “+++ (NAUC “+++” refers to an observed NAUC >170% of positive control)”.
In the case of `O=C1C2C3CC4(CC4)CN3C3(C(=O)Nc4c(Cl)cc(Cl)cc43)C2C(=O)N1c1cc(Cl)cc(Cl)c1` (stereo not drawn) [Example 174], the “Nauc @ 3 μM” value is recorded as “+++ (NAUC “+++” refers to an observed NAUC >170% of positive control)” and the “Nauc @ 10 μM” value was “+++ (NAUC “+++” refers to an observed NAUC >170% of positive control)”.
Regarding `COc1ccccc1CC1NC2(C(=O)Nc3c(Cl)cc(Cl)cc32)C2C(=O)N(c3cc(Cl)cc(Cl)c3)C(=O)C12` (stereo not drawn) [Example 201], the “Nauc @ 3 μM” value was “+ (NAUC “+” refers to an observed NAUC <140% of positive control)” and the “Nauc @ 10 μM” value is recorded as “+++ (NAUC “+++” refers to an observed NAUC >170% of positive control)”.
For `O=C1C2C3CCCN3C3(C(=O)Nc4c(Cl)cc(Cl)cc43)C2C(=O)N1c1cccc2c1OC(F)(F)O2` (stereo not drawn) [Example 23], in that order: “++ (NAUC “++” refers to an observed NAUC 170-140% of positive control)” and “+ (NAUC “+” refers to an observed NAUC <140% of positive control)”.
For `CC1(C)CC2C3C(=O)N(c4cc(Cl)c(OC(F)F)c(Cl)c4)C(=O)C3C3(C(=O)Nc4c(Cl)cc(Cl)cc43)N2C1` (stereo not drawn) [Example 225], in that order: “+++ (NAUC “+++” refers to an observed NAUC >170% of positive control)” and “+++ (NAUC “+++” refers to an observed NAUC >170% of positive control)”.
The matching figures for `O=C1C2C3C[C@H](O)CN3C3(C(=O)Nc4c(Cl)cc(Cl)cc43)C2C(=O)N1c1cc(Br)cc(Br)c1` (stereo partly drawn) [Example 45]: “+ (NAUC “+” refers to an observed NAUC <140% of positive control)” and “+++ (NAUC “+++” refers to an observed NAUC >170% of positive control)”.
Regarding `COc1c(Cl)cc(N2C(=O)C3C4C[C@H](Cl)CN4C4(C(=O)Nc5c(Cl)cc(Cl)cc54)C3C2=O)cc1Cl` (stereo partly drawn) [Example 79], the “Nauc @ 3 μM” value is “+++ (NAUC “+++” refers to an observed NAUC >170% of positive control)” and the “Nauc @ 10 μM” value is “+++ (NAUC “+++” refers to an observed NAUC >170% of positive control)”.
`N#C[C@H]1CC2C3C(=O)N(c4cc(Cl)cc(Cl)c4)C(=O)C3C3(C(=O)Nc4c(Cl)cc(Cl)cc43)N2C1` (stereo partly drawn) [Example 68]: the “Nauc @ 3 μM” value is on record as “+ (NAUC “+” refers to an observed NAUC <140% of positive control)” and the “Nauc @ 10 μM” value was “+++ (NAUC “+++” refers to an observed NAUC >170% of positive control)”.
For `O=C1C2C3CCCN3C3(C(=O)Nc4c(Cl)cc(Cl)cc43)C2C(=O)N1c1cc(C(F)(F)F)cc(C(F)(F)F)c1` (stereo not drawn) [Example 25], in that order: “+++ (NAUC “+++” refers to an observed NAUC >170% of positive control)” and “+++ (NAUC “+++” refers to an observed NAUC >170% of positive control)”.
For the compound `COc1cc(Cl)cc(N2C(=O)C3C4CCCN4C4(C(=O)Nc5c(Cl)cc(Cl)cc54)C3C2=O)c1` (single isomer, unassigned) [Example 104], the “Nauc @ 3 μM” value was “+ (NAUC “+” refers to an observed NAUC <140% of positive control)” and the “Nauc @ 10 μM” value is recorded as “++ (NAUC “++” refers to an observed NAUC 170-140% of positive control)”.
For `O=C1C2C3CCCN3C3(C(=O)Nc4c(Cl)cc(Cl)cc43)C2C(=O)N1c1cccc(F)n1` (stereo not drawn) [Example 227], in that order: “+ (NAUC “+” refers to an observed NAUC <140% of positive control)” and “++ (NAUC “++” refers to an observed NAUC 170-140% of positive control)”.
As to `C[C@]1(O)CC2C3C(=O)N(c4nnn[nH]4)C(=O)C3C3(C(=O)Nc4c(Cl)cc(Cl)cc43)N2C1` (stereo partly drawn) [Example 8, (7′S)-5,7-Dichloro-7′-hydroxy-7′-methyl-2′-(1H-tetrazol-5-yl)-3a′,6′,7′,8′,8a′,8b′-hexahydro-1′H-spiro[indoline-3,4′-pyrrolo[3,4-a]pyrrolizine]-1′,2,3′(2′H)-trione], the “Nauc @ 3 μM” value is reported as “+++ (NAUC “+++” refers to an observed NAUC >170% of positive control)” and the “Nauc @ 10 μM” value is on record as “+ (NAUC “+” refers to an observed NAUC <140% of positive control)”.
